From article PMC3276251 (Chemical Research in Toxicology, 2011)
“Also recorded” adds a separate entry of the source. Where two headings read alike, the source gives them in different places.

Assays:
[1] = Isolated perfused rat kidney; format: in vitro ADME, Sprague-Dawley rats; details: for XR (excretion ratio = CLR/CLFILT) / CLFILT (filtration clearance) / Cumulative excretion (urinary) / Kidney accumulation / CL renal at 50 µM: 50 µM dose; for XR (excretion ratio = CLR/CLFILT): AUC method; for CLFILT (filtration clearance): GFR × fu; for Cumulative excretion (urinary) / Kidney accumulation: at 80 min post-dose; for Average amount in perfusate per 10-min period / Average amount in urine per 10-min period: 40–50, 50–60, 60–70 and 70–80 min periods, S.D. in parenthesis; for Concentration in perfusate / Concentration in urine: 70–80 min period, perfused with 50 µM AA-I; for Cumulative AA-I excretion in the urine (Xu): eight periods (0–80 min); for Average excretion ratio (XR): mean (S.D.) of 7 collection periods 10–80 min, XR = Cl/(fu × GFR), Cl = Cu × UFR/Cp; for Concentration of AA-I in the urines: last periods; for Concentration of AA-I in the urines / Concentration in the urines: more or less constant; for CL renal at 50 µM: male, Sprague-Dawley, rat, CLR (renal clearance), cumulative urinary excretion / AUC 0–80 min post-dose; for Concentration in the urines: 30–80 min
[2] = biological target: albumin in perfusate (Bos taurus, UniProt P02769); assay: Perfusate binding by ultrafiltration; format: in vitro ADME
[3] = format: in vivo, male Wistar rats; details: 2 mg AA-I subcutaneously; for Average concentration in 24-hour collected urine: five rats, standard deviation in parentheses; for Amount in the 24 hr urine sample: Wistar rats; for Presence in collected rat urine: 24 hr urine

albumin in perfusate, sequence (P02769 25-607): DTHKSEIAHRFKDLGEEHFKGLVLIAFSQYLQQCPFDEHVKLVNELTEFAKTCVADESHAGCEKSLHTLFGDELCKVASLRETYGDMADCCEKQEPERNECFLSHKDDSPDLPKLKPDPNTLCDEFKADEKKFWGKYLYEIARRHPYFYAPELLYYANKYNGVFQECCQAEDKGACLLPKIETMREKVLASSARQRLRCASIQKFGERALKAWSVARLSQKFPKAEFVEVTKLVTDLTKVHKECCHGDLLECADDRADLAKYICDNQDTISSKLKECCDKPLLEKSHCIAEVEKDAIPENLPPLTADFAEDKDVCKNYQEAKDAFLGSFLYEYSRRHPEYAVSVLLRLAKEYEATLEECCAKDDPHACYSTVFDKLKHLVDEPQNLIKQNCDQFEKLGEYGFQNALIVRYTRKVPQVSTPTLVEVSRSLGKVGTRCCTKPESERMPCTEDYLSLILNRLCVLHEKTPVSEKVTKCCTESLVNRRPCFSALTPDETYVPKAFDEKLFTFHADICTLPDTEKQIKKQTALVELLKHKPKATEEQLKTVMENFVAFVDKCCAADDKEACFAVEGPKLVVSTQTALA

Molecule	Average amount in perfusate per 10-min period ([1]; Kidney A)	Average amount in urine per 10-min period ([1]; Kidney A)	Concentration in perfusate ([1]; Kidney A) [nM]	Concentration in urine ([1]; Kidney A) [nM]	Average excretion ratio (XR) ([1]; Kidney A)	Average amount in perfusate per 10-min period ([1]; Kidney B)	Average amount in urine per 10-min period ([1]; Kidney B)	Concentration in perfusate ([1]; Kidney B) [nM]	Concentration in urine ([1]; Kidney B) [nM]	Average excretion ratio (XR) ([1]; Kidney B)	Average concentration in 24-hour collected urine [3]	Amount in the 24 hr urine sample [3]	further results
COc1cccc2c1cc([N+](=O)[O-])c1c(C(=O)O)cc3c(c12)OCO3 [AA-I, 8-methoxy-6-nitro-phenanthro[3,4-d]-1,3-dioxole-5-carboxylic acid]	1441 (139) nanomoles	0.36 (0.05) nanomoles	16070	480	0.14 (0.05)	2447 (298) nanomoles	1.24 (0.32) nanomoles	23800	940	0.24 (0.05)	68 (17) µg/Lt	–	XR (excretion ratio = CLR/CLFILT) ([1]; Kidney A): 0.10; CLFILT (filtration clearance) ([1]; Kidney A): 0.0146 mL/min; Cumulative excretion (urinary) ([1]; Kidney A): 0.063 % dose; Kidney accumulation ([1]; Kidney A): 68 % dose; Cumulative AA-I excretion in the urine (Xu) ([1]; Kidney A): 2.5 µmol; XR (excretion ratio = CLR/CLFILT) ([1]; Kidney B): 0.26; CLFILT (filtration clearance) ([1]; Kidney B): 0.0138 mL/min; Cumulative excretion (urinary) ([1]; Kidney B): 0.162 % dose; Kidney accumulation ([1]; Kidney B): 53 % dose; Cumulative AA-I excretion in the urine (Xu) ([1]; Kidney B): 6.5 µmol; Perfusate concentration of AA-I ([1]; Rat A, at 75 min): ca. 16 µM; Concentration of AA-I in the urines ([1]; Rat A): ~500 nM; Perfusate concentration of AA-I ([1]; Rat B, at 75 min): ~23 µM; Concentration of AA-I in the urines ([1]; Rat B): ~1200 nM; Amounts of AA-I in perfusate and urines ([1]; end of the experiment (80 min)): less than 50 % of the dose; CL renal at 50 µM ([1]; Kidney A): 0.0014 mL/min; CL renal at 50 µM ([1]; Kidney B): 0.003 mL/min; Perfusate concentration of AA-I ([1]; sample taken at 15 min): ca. 28 µM; fraction unbound [2]: 0.0225
O=C(O)c1cc2c(c3c1c([N+](=O)[O-])cc1c(O)cccc13)OCO2 [AA-Ia, aristolochic acid Ia]	71.6 (31.0) nanomoles	0.72 (0.11) nanomoles	1240	680	12 (10)	38 (10) nanomoles	6.7 (2.6) nanomoles	420	4380	130 (77)	7900 (1300) µg/Lt	14.3 % of the dose	Concentration in the urines ([1]; rat A): ca. 1 µM; Concentration in the urines ([1]; rat B): ~7000 nM; fu (fraction unbound to albumin in perfusate) ([2]; ultrafiltration, perfusate): 0.0220
O=C(O)c1cc2c(c3c1c([N+](=O)[O-])cc1c(OS(=O)(=O)O)cccc13)OCO2 [AA-Ia-O-S, 8-hydroxy-3,4-methylenedioxy-10-nitro-1-phenanthrenecarboxylic acid O-sulfate]	–	0.36 (0.05) nanomoles	–	360	–	–	0.96 (0.28) nanomoles	–	740	–	–	–	Identification in the perfusate ([1]; IPK): could not be identified; Presence in collected rat urine ([3]; listed as AA-Ia-O-S (5)): could only occasionally be observed by UV detection; also recorded: trace amounts
COc1cccc2c1cc1c3c(cc4c(c32)OCO4)C(=O)N1 [L-I, aristolactam I]	0.086 (0.062) nanomoles	0.029 (0.013) nanomoles	2	53	130 (85)	0.35 (0.05) nanomoles	0.034 (0.015) nanomoles	18	55	33 (22)	5.4 (3.8) µg/Lt	0.01 % of the dose	fraction unbound [2]: 0.0235
O=C1Nc2cc3c(OC4OC(C(=O)O)C(O)C(O)C4O)cccc3c3c4c(cc1c23)OCO4 [L-Ia-O-G, 8-hydroxy-3,4-methylenedioxy-10-amino-1-phenanthrene-carboxylic acid lactam O-glucuronide]	–	0.019 (0.007) nanomoles	–	31	–	–	0.012 (0.009) nanomoles	14	21	–	66 (54) µg/Lt	0.09 % of the dose	–
O=C1Nc2cc3c(OS(=O)(=O)O)cccc3c3c4c(cc1c23)OCO4 [L-Ia-O-S, 8-hydroxy-3,4-methylenedioxy-10-amino-1-phenanthrenecarboxylic acid lactam O-sulfate]	–	–	–	–	–	–	–	–	–	–	53 (24) µg/Lt	0.09 % of the dose	–
O=C(O)c1cc2c(c3c1ccc1c(O)cccc13)OCO2 [compound 9, 3,4-methylenedioxy-8-hydroxy-1-phenanthrene-1-carboxylic acid]	–	–	–	–	–	–	–	–	–	–	–	–	Presence in collected rat urine [3]: could only occasionally be observed by UV detection
aristolactam Ia [L-Ia]	0.97 (0.52) nanomoles	0.10 (0.03) nanomoles	10	160	62 (50)	0.29 (0.09) nanomoles	0.089 (0.071) nanomoles	24	–	160 (131)	1600 (678) µg/Lt	3.4 % of the dose	–
